According to PubChem BioAssay AID1259407 (Chemical Carcinogenesis Research Information System (CCRIS), 2018):
The source made the active and inactive calls. How the calls were made is not given here.

Tested on: CCRIS mutagenicity, Ames/micronucleus/aberration tests
Experiment: CCRIS mutagenicity studies
[1] = Test System: AMES SALMONELLA TYPHIMURIUM, Strain/Indicator: TA98, Metabolic Activation: NONE, Method: STANDARD PLATE
[2] = Test System: AMES SALMONELLA TYPHIMURIUM, Strain/Indicator: TA100, Metabolic Activation: NONE, Method: STANDARD PLATE
[3] = Test System: AMES SALMONELLA TYPHIMURIUM, Strain/Indicator: TA1537, Metabolic Activation: NONE, Method: STANDARD PLATE
[4] = Test System: AMES SALMONELLA TYPHIMURIUM, Strain/Indicator: TA97, Metabolic Activation: NONE, Method: PREINCUBATION
[5] = Test System: AMES SALMONELLA TYPHIMURIUM, Strain/Indicator: TA98, Metabolic Activation: HAMSTER, LIVER, S-9, AROCLOR 1254 (10%), Method: PREINCUBATION
[6] = Test System: AMES SALMONELLA TYPHIMURIUM, Strain/Indicator: TA98, Metabolic Activation: NONE, Method: PREINCUBATION
[7] = Test System: AMES SALMONELLA TYPHIMURIUM, Strain/Indicator: TA98, Metabolic Activation: RAT, LIVER, S-9, AROCLOR 1254 (10%), Method: PREINCUBATION
[8] = Test System: AMES SALMONELLA TYPHIMURIUM, Strain/Indicator: TA100, Metabolic Activation: HAMSTER, LIVER, S-9, AROCLOR 1254 (10%), Method: PREINCUBATION
[9] = Test System: AMES SALMONELLA TYPHIMURIUM, Strain/Indicator: TA100, Metabolic Activation: NONE, Method: PREINCUBATION
[10] = Test System: AMES SALMONELLA TYPHIMURIUM, Strain/Indicator: TA100, Metabolic Activation: RAT, LIVER, S-9, AROCLOR 1254 (10%), Method: PREINCUBATION
[11] = Test System: AMES SALMONELLA TYPHIMURIUM, Strain/Indicator: TA1535, Metabolic Activation: HAMSTER, LIVER, S-9, AROCLOR 1254 (10%), Method: PREINCUBATION
[12] = Test System: AMES SALMONELLA TYPHIMURIUM, Strain/Indicator: TA1535, Metabolic Activation: NONE, Method: PREINCUBATION
[13] = Test System: AMES SALMONELLA TYPHIMURIUM, Strain/Indicator: TA1535, Metabolic Activation: RAT, LIVER, S-9, AROCLOR 1254 (10%), Method: PREINCUBATION

Nc1ccc2[nH]c3ccccc3c2c1[N+](=O)[O-]
mutagenic call [1]: active; positive | mutagenic call (Test System: AMES SALMONELLA TYPHIMURIUM, Strain/Indicator: TA98, Metabolic Activation: RAT, LIVER, S-9, PHENOBARBITAL, Method: STANDARD PLATE): active; positive | mutagenic call [2]: active; positive | mutagenic call (Test System: AMES SALMONELLA TYPHIMURIUM, Strain/Indicator: TA100, Metabolic Activation: RAT, LIVER, S-9, PHENOBARBITAL, Method: STANDARD PLATE): inactive; negative | mutagenic call [3]: active; positive | mutagenic call (Test System: AMES SALMONELLA TYPHIMURIUM, Strain/Indicator: TA1537, Metabolic Activation: RAT, LIVER, S-9, PHENOBARBITAL, Method: STANDARD PLATE): active; positive | mutagenic call (Test System: AMES SALMONELLA TYPHIMURIUM, Strain/Indicator: TA1538, Metabolic Activation: NONE, Method: STANDARD PLATE): active; positive | mutagenic call (Test System: AMES SALMONELLA TYPHIMURIUM, Strain/Indicator: TA1538, Metabolic Activation: RAT, LIVER, S-9, PHENOBARBITAL, Method: STANDARD PLATE): active; positive | mutagenic call (Test System: AMES SALMONELLA TYPHIMURIUM, Strain/Indicator: TA1977, Metabolic Activation: NONE, Method: STANDARD PLATE): active; positive | mutagenic call (Test System: AMES SALMONELLA TYPHIMURIUM, Strain/Indicator: TA1977, Metabolic Activation: RAT, LIVER, S-9, PHENOBARBITAL, Method: STANDARD PLATE): active; positive

CN(C(=O)CCCCl)c1snc2ccccc12
mutagenic call [1]: inactive; negative | mutagenic call (Test System: AMES SALMONELLA TYPHIMURIUM, Strain/Indicator: TA98, Metabolic Activation: S-9, Method: STANDARD PLATE): inactive; negative | mutagenic call [2]: inactive; negative | mutagenic call (Test System: AMES SALMONELLA TYPHIMURIUM, Strain/Indicator: TA100, Metabolic Activation: S-9, Method: STANDARD PLATE): inactive; negative | mutagenic call (Test System: AMES SALMONELLA TYPHIMURIUM, Strain/Indicator: TA1535, Metabolic Activation: NONE, Method: STANDARD PLATE): inactive; negative | mutagenic call (Test System: AMES SALMONELLA TYPHIMURIUM, Strain/Indicator: TA1535, Metabolic Activation: S-9, Method: STANDARD PLATE): inactive; negative | mutagenic call [3]: inactive; negative | mutagenic call (Test System: AMES SALMONELLA TYPHIMURIUM, Strain/Indicator: TA1537, Metabolic Activation: S-9, Method: STANDARD PLATE): inactive; negative

CCCCOP(=O)(OCCCC)Oc1ccccc1
mutagenic call (Test System: AMES SALMONELLA TYPHIMURIUM, Strain/Indicator: TA97, Metabolic Activation: HAMSTER, LIVER, S-9, AROCLOR 1254 (10%), Method: PREINCUBATION): inactive; negative | mutagenic call (Test System: AMES SALMONELLA TYPHIMURIUM, Strain/Indicator: TA97, Metabolic Activation: HAMSTER, LIVER, S-9, AROCLOR 1254 (30%), Method: PREINCUBATION): inactive; negative | mutagenic call [4]: inactive; negative | mutagenic call (Test System: AMES SALMONELLA TYPHIMURIUM, Strain/Indicator: TA97, Metabolic Activation: RAT, LIVER, S-9, AROCLOR 1254 (10%), Method: PREINCUBATION): inactive; negative | mutagenic call (Test System: AMES SALMONELLA TYPHIMURIUM, Strain/Indicator: TA97, Metabolic Activation: RAT, LIVER, S-9, AROCLOR 1254 (30%), Method: PREINCUBATION): inactive; negative | mutagenic call [5]: inactive; negative | mutagenic call (Test System: AMES SALMONELLA TYPHIMURIUM, Strain/Indicator: TA98, Metabolic Activation: HAMSTER, LIVER, S-9, AROCLOR 1254 (30%), Method: PREINCUBATION): inactive; negative | mutagenic call [6]: inactive; negative | mutagenic call [7]: inactive; negative | mutagenic call (Test System: AMES SALMONELLA TYPHIMURIUM, Strain/Indicator: TA98, Metabolic Activation: RAT, LIVER, S-9, AROCLOR 1254 (30%), Method: PREINCUBATION): inactive; negative | mutagenic call [8]: inactive; negative | mutagenic call (Test System: AMES SALMONELLA TYPHIMURIUM, Strain/Indicator: TA100, Metabolic Activation: HAMSTER, LIVER, S-9, AROCLOR 1254 (30%), Method: PREINCUBATION): inactive; negative | mutagenic call [9]: inactive; negative | mutagenic call [10]: inactive; negative | mutagenic call (Test System: AMES SALMONELLA TYPHIMURIUM, Strain/Indicator: TA100, Metabolic Activation: RAT, LIVER, S-9, AROCLOR 1254 (30%), Method: PREINCUBATION): inactive; negative | mutagenic call [11]: inactive; negative | mutagenic call (Test System: AMES SALMONELLA TYPHIMURIUM, Strain/Indicator: TA1535, Metabolic Activation: HAMSTER, LIVER, S-9, AROCLOR 1254 (30%), Method: PREINCUBATION): inactive; negative | mutagenic call [12]: inactive; negative | mutagenic call [13]: inactive; negative | mutagenic call (Test System: AMES SALMONELLA TYPHIMURIUM, Strain/Indicator: TA1535, Metabolic Activation: RAT, LIVER, S-9, AROCLOR 1254 (30%), Method: PREINCUBATION): inactive; negative

CCC(Cl)C(Cl)C(Cl)CC(Cl)C(Cl)C(C)Cl (stereo not given)
mutagenic call (Test System: AMES SALMONELLA TYPHIMURIUM, Strain/Indicator: TA97, Metabolic Activation: HAMSTER, LIVER, S-9, AROCLOR 1254, Method: PREINCUBATION): inactive; negative | mutagenic call [4]: inactive; negative | mutagenic call (Test System: AMES SALMONELLA TYPHIMURIUM, Strain/Indicator: TA97, Metabolic Activation: RAT, LIVER, S-9, AROCLOR 1254, Method: PREINCUBATION): inactive; negative | mutagenic call [5]: inactive; negative | mutagenic call (Test System: AMES SALMONELLA TYPHIMURIUM, Strain/Indicator: TA98, Metabolic Activation: HAMSTER, LIVER, S-9, AROCLOR 1254, Method: PREINCUBATION): inactive; negative | mutagenic call [6]: inactive; negative | mutagenic call [7]: inactive; negative | mutagenic call (Test System: AMES SALMONELLA TYPHIMURIUM, Strain/Indicator: TA98, Metabolic Activation: RAT, LIVER, S-9, AROCLOR 1254, Method: PREINCUBATION): inactive; negative | mutagenic call [8]: inactive; negative | mutagenic call (Test System: AMES SALMONELLA TYPHIMURIUM, Strain/Indicator: TA100, Metabolic Activation: HAMSTER, LIVER, S-9, AROCLOR 1254, Method: PREINCUBATION): inactive; negative | mutagenic call [9]: inactive; negative | mutagenic call [10]: inactive; negative | mutagenic call (Test System: AMES SALMONELLA TYPHIMURIUM, Strain/Indicator: TA100, Metabolic Activation: RAT, LIVER, S-9, AROCLOR 1254, Method: PREINCUBATION): inactive; negative | mutagenic call [11]: inactive; negative | mutagenic call (Test System: AMES SALMONELLA TYPHIMURIUM, Strain/Indicator: TA1535, Metabolic Activation: HAMSTER, LIVER, S-9, AROCLOR 1254, Method: PREINCUBATION): inactive; negative | mutagenic call [12]: inactive; negative | mutagenic call [13]: inactive; negative | mutagenic call (Test System: AMES SALMONELLA TYPHIMURIUM, Strain/Indicator: TA1535, Metabolic Activation: RAT, LIVER, S-9, AROCLOR 1254, Method: PREINCUBATION): inactive; negative | mutagenic call (Test System: AMES SALMONELLA TYPHIMURIUM, Strain/Indicator: TA1537, Metabolic Activation: HAMSTER, LIVER, S-9, AROCLOR 1254 (10%), Method: PREINCUBATION): inactive; negative | mutagenic call (Test System: AMES SALMONELLA TYPHIMURIUM, Strain/Indicator: TA1537, Metabolic Activation: NONE, Method: PREINCUBATION): inactive; negative | mutagenic call (Test System: AMES SALMONELLA TYPHIMURIUM, Strain/Indicator: TA1537, Metabolic Activation: RAT, LIVER, S-9, AROCLOR 1254 (10%), Method: PREINCUBATION): inactive; negative | mutagenic call (Test System: MOUSE LYMPHOMA, Strain/Indicator: L5178Y (TK+/TK-), Metabolic Activation: NONE, Method: SUSPENSION/PLATE): active; positive
